In one data set the test system is 3DG. Put plainly: Plasma 3DG levels in diabetic and non-diabetic rats treated with 3-O-methyl sorbitollysine. The class given is in vivo, rat. The following applies: for plasma 3DG level: 50 mg/kg body weight injections, within one week. On the procedure: A cohort of twelve diabetic rats was divided into two groups of six. The first group received saline-only injections, and the second received injections of 3-O-methyl sorbitollysine (50 mg/kg body weight) in saline solution. The same procedure was conducted on a cohort of twelve non-diabetic rats.

Data set [1] can be described thus: Locus of 3-O-methyl sorbitollysine uptake in vivo (tissue, urine, plasma). Set-up: species or system rat. On the procedure:
[…] Urine was collected for 3 hours, after which the rats were sacrificed. The tissues to be analyzed were removed and freeze clamped in liquid nitrogen. Perchloric acid extracts of the tissues were used for metabolite analysis. The tissues examined were taken from the brain, heart, muscle, sciatic nerve, spleen, pancreas, liver, and kidney. Plasma was also analyzed.

For another data set, the system named is STZ-diabetic rats. Description: Skin elasticity measurement (vacuum pull to displace skin). The data set is classed as in vivo, rat. The following applies: 50 mg/kg daily s.c. for eight weeks. On the procedure:
Experiments were performed to determine the effects of DYN 12 on the loss of skin elasticity associated with diabetes. To this end, two groups of STZ-diabetic rats and two groups of normal rats were subjected to treatment with DYN 12 or saline. One 'group of STZ-diabetic rats (n=9) received daily subcutaneous injections of DYN 12 at 50 mg/kg for eight weeks, as did one group of normal rats (n=6). A group of control diabetic rats (n=10) and a group of normal rats (n=6) received saline instead of DYN 12. One rat was removed from the diabetic DYN 12 group after 2 weeks because its blood glucose readings were inconsistent (too low) with other diabetic rats.
A non-invasive procedure based on CyberDERM, Inc. technology utilizing a skin elasticity measurement device was used to test the effects of DYN 12 treatment on skin elasticity. The procedure provides for non-invasive measurement of skin elasticity based upon the amount of vacuum pull required to displace skin. A suction cup probe is adhered to an area of shaved skin in order to form an airtight seal. Then, a vacuum is applied to the area of the skin inside the suction cup until the skin is displaced past a sensor located inside the probe. Accordingly, the more pressure that is required to displace the skin, the less elastic the skin is.

Data set [2] can be described thus: Distribution of DYN-12 in plasma, urine and kidney. The class given is in vivo, rat. Conditions: individual rats, 100 micromols i.p. On the procedure:
Rats were injected intraperitoneally with 1 ml of a 100 mM solution of DYN-12 (100 micromols). Urine was collected for 1 hr, and DYN-12 levels measured. After 1 hr the animals were sacrificed and DYN-12 levels measured in both plasma and kidney tissue.

Another data set deals with T1, fructoseamine kinase (Homo sapiens, UniProt Q9H479).
T1 sequence (Q9H479 1-309): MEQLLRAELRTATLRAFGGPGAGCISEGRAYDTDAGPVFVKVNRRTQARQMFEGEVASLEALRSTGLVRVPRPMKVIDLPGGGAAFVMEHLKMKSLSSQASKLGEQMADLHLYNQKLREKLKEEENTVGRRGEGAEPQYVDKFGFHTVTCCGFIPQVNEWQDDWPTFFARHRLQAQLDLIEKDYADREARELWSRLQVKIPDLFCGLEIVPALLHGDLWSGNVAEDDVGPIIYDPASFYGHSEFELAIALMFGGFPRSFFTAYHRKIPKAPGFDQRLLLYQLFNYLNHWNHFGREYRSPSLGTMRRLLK
Description: Fructoseamine kinase inhibition (Ki). The class given is biochemical.

Values joined by “and” are separate entries in the source; they are usually repeats but may differ in a detail not shown here. Identical values can stand only once.

This is an account of results in patent US20070065443A1, “Fructoseamine 3 kinase and the formation of collagen and elastin” (priority 2004, published 2007).

Take `COC(C(O)CNCCCCC(N)C(=O)O)C(O)C(O)CO` (stereo not drawn) [DYN 12, 3-O-methylsorbitollysine]: in the data set with 3DG (diabetic rats), the “% Reduction of plasma 3DG vs saline only” value is given as 53% and the “plasma 3DG level” value is 0.44 ± 0.10 µM. For the same compound, in the data set with 3DG (non-diabetic rats), the “% Reduction of plasma 3DG vs saline only” value is 43% and the “plasma 3DG level” value turned out to be 0.13 ± 0.02 µM. In data set [1] (3 hours after i.p. injection), the “presence of the compound in plasma” value is on record as “plasma did not”. Also, the “tissue extracts containing the compound” value in data set [1] (brain, heart, muscle, sciatic nerve, spleen, pancreas, liver, kidney examined, 3 hours) was “only tissue extract found to contain 3-O-methyl sorbitollysine was that of the kidney”. Also, the “nmols 3OMeSL in kidneys” value in data set [1] (individual rats, 13500 nmols i.p., 3 hours, listed as 3OMeSL) is 8155 nmols and 3880 nmols and 10071 nmols and 6582 nmols and 5373 nmols and 4833 nmols. Moreover, in data set [1] (individual rats, 13500 nmols i.p., urine collected 3 hours, listed as 3OMeSL), the “nmols 3OmeSL in urine” value was 4200 nmols and 1355 nmols and 2940 nmols and 1675 nmols and 1778 nmols and 2360 nmols. Also, in data set [1] (individual rats, 3 hours after i.p. injection, listed as 3OMeSL), the “% 3OMeSL recovered (of injected dose, urine and kidney)” value is 91.5% and 38.8% and 96.4% and 61.2% and 53.0% and 53.3%. Further, in data set [1] (individual rats, urine plus kidneys, 3 hours, listed as 3OMeSL), the “total 3OMeSL recovered” value is 12355 nmols and 5235 nmols and 13011 nmols and 8257 nmols and 7151 nmols and 7193 nmols. Further, in the data set with STZ-diabetic rats, the “pressure needed to displace the skin” value is 3.2+/−1.2 kPA. In addition, in data set [2] (1 hr), the “DYN-12 concentration Kidney” value is 6.54 µmol/g and 9.19 µmol/g and 8.21 µmol/g; the “DYN-12 concentration Plasma” value was 0.335 µmol/mL and 0.269 µmol/mL and 0.296 µmol/mL. For the same compound, the “DYN-12 concentration Urine” value in data set [2] (urine collected 1 hr) is 41.99 µmol/mL and 17.81 µmol/mL and 15.03 µmol/mL. For the same compound, the Ki at fructoseamine kinase was 2000 to 3000 µM.
